The source of these data is patent US9328138B2 (priority 2011, dated 2016).

Assay [1] has as its target HCV NS3 protease genotype 3a (3A-1) (Hepatitis C virus genotype 3a, UniProt Q81258). Put plainly: HCV NS3 protease time-resolved fluorescence (TRF) assay, genotype 3a. It counts as biochemical. The note with it: Ki 3a. In short, it runs like this:
(§1)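 IC50 values derive from 4-parameter fitting of TRF signal after a 6 h room-temperature cleavage of 25 nM peptide substrate by NS3/NS4A that had been pre-incubated 10 min with compound.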

For assay [2], the target named is T1, HCV genotype 1b (BK) NS3 modified enzyme with a R155K mutation (Hepatitis C virus genotype 1b, UniProt P26663, R1181K).
T1 construct: HCV genotype 1b (BK) NS3 modified enzyme
Nature of the assay: HCV NS3 protease time-resolved fluorescence (TRF) assay, genotype 1b R155K. It counts as biochemical. The note with it: Ki 1b R155K. In short, it runs like this: as §1

[3] abbreviates: genotype 1b (BK) NS3 R155K, single value.

The term Ki denotes the equilibrium dissociation constant of an inhibitor or competing ligand from its target. In the case of `C=C[C@@H]1C[C@]1(NC(=O)[C@@H]1C[C@@H]2CN1C(=O)[C@H](C(C)(C)C)NC(=O)O[C@@H]1CCC[C@H]1CCCCCc1c(nc3ccccc3c1OCCCN1CCCCC1)O2)C(=O)NS(=O)(=O)C1(COC)CC1` [Example 96, (3aR,7S,10S,12R,24aR)-7-tert-butyl-N-[(1R,2S)-2-ethenyl-1-({[1-(methoxymethyl)cyclopropyl]sulfonyl}carbamoyl)cyclopropyl]-5,8-dioxo-19-[3-(piperidin-1-yl)propoxy]-1,2,3,3a,5,6,7,8,11,12,20,21,22,23,24,24a-hexadecahydro-10H-9,12-methanocyclopenta[18,19][1,10,3,6]dioxadiazacyclononadecino[11,12-b]quinoline-10-carboxamide], the Ki came out at 0.78 nM in assay [1] and 0.15 nM in assay [2] (setting [3]).

Regarding `C=C[C@@H]1C[C@]1(NC(=O)[C@@H]1C[C@@H]2CN1C(=O)[C@H](C(C)(C)C)NC(=O)O[C@@H]1C[C@H]1CCCCCc1c(nc3ccccc3c1OC1CC3CCC(C1)N3)O2)C(=O)NS(=O)(=O)C1(C)CC1` (single isomer, unassigned) [Example 274], the Ki in assay [1] was 0.094 nM; in assay [2] (first of two values printed in the cell (not explained)), 0.015 nM; in assay [2] (second of two values printed in the cell (not explained)) it was 0.015 nM.

For the molecule `C=C[C@@H]1C[C@]1(NC(=O)[C@@H]1C[C@@H]2CN1C(=O)[C@H](C(C)(C)C)NC(=O)O[C@@H]1CCC[C@H]1CCCCCc1c(nc3ccccc3c1OCCN1CCOCC1)O2)C(=O)NS(=O)(=O)N(C)C` [Example 106, (3aR,7S,10S,12R,24aR)-7-tert-butyl-N-{(1R,2S)-1-[(dimethylsulfamoyl)carbamoyl]-2-ethenylcyclopropyl}-19-[2-(morpholin-4-yl)ethoxy]-5,8-dioxo-1,2,3,3a,5,6,7,8,11,12,20,21,22,23,24,24a-hexadecahydro-10H-9,12-methanocyclopenta[18,19][1,10,3,6]dioxadiazacyclononadecino[11,12-b]quinoline-10-carboxamide], the inhibition constant Ki in assay [1] stood at 17 nM; in assay [2] (setting [3]), 0.78 nM.

For `C=C[C@@H]1C[C@]1(NC(=O)[C@@H]1C[C@@H]2CN1C(=O)[C@H](C(C)(C)C)NC(=O)O[C@@H]1C[C@H]1CCCCCc1c(nc3cc(C)ccc3c1OCCCNC)O2)C(=O)NS(=O)(=O)C1(C)CC1` [Example 149, (1aR,5S,8S,10R,22aR)-5-tert-butyl-N-[(1R,2S)-2-ethenyl-1-{[(1-methylcyclopropyl)sulfonyl]carbamoyl}cyclopropyl]-14-methyl-17-[3-(methylamino)propoxy]-3,6-dioxo-1,1a,3,4,5,6,9,10,18,19, 20,21,22,22a-tetradecahydro-8H-7,10-methanocyclopropa[1,19] [1,10,3,6]dioxadiazacyclonona decino[11,12-b]quinoline-8-carboxamide], the values for the Ki in assay [1] and in assay [2] (setting [3]) were 0.74 nM and 0.041 nM, respectively.

Regarding `C=C[C@@H]1C[C@]1(NC(=O)[C@@H]1C[C@@H]2CN1C(=O)[C@H](C1CCCC1)NC(=O)O[C@@H]1CCC[C@H]1CC/C=C/Cc1c(nc3ccccc3c1OC(=O)CC(C)C)O2)C(=O)NS(=O)(=O)C1CC1` [Example 41, (3aR,7S,10S,12R,21E,24aS)-7-cyclopentyl-10-({(1R,2S)-1-[(cyclopropylsulfonyl)carbamoyl]-2-ethenylcyclopropyl}carbamoyl)-5,8-dioxo-1,2,3,3a,5,6,7,8,11,12,20,23,24,24a-tetradecahydro-10H-9,12-methanocyclopenta[18,19][1,10,3,6]dioxadiazacyclononadecino[11,12-b]quinolin-19-yl 3-methylbutanoate], the Ki in assay [1] turned out to be 73 nM; in assay [2] (setting [3]), 6.6 nM.

Regarding `C=C[C@@H]1C[C@]1(NC(=O)[C@@H]1C[C@@H]2CN1C(=O)[C@H](C(C)(C)C)NC(=O)O[C@@H]1CCC[C@H]1CCCCCc1c(nc3ccccc3c1OCCCN(C)C)O2)C(=O)NS(=O)(=O)C1(COC)CC1` [Example 97, (3aR,7S,10S,12R,24aR)-7-tert-butyl-19-[3-(dimethyl-amino)propoxy]-N-[(1R,2S)-2-ethenyl-1-({[1-(methoxymethyl)cyclopropyl]sulfonyl}carbamoyl)cyclopropyl]-5,8-dioxo-1,2,3,3a,5,6,7,8,11,12,20,21,22,23, 24,24a-hexadecahydro-10H-9,12-methanocyclopenta[18,19] [1,10,3,6]dioxadiaza-cyclononadecino [11,12,-b]quinoline-10-carboxamide], the results for the Ki in assay [1] and in assay [2] (setting [3]) were 73 nM and 0.08 nM, respectively.

In the case of `C=CC1C[C@]1(NC(=O)[C@@H]1C[C@@H]2CN1C(=O)[C@H](C1CCCC1)NC(=O)O[C@@H]1CCC[C@H]1CC/C=C/Cc1c(nc3ccccc3c1OCCCN1CCC1)O2)C(=O)NS(=O)(=O)C1(C)CC1` (stereo partly drawn) [Example 85, (3aR,7S,10S,12R,21E,24aS)-19-[3-(azetidin-1-yl)propoxy]-7-cyclopentyl-N-[(1R,2S)-2-ethenyl-1-{[(1-methylcyclopropyl)sulfonyl]carbamoyl}cyclopropyl]-5,8-dioxo-1,2,3,3a,5,6,7,8,11,12,20,23,24,24a-tetra deca hydro-10H-9,12-methanocyclopenta [18,19][1,10,3,6]dioxa-diazacyclononadecino[11,12-b] quinoline-10-carboxamide], the Ki in assay [1] is 0.56 nM; in assay [2] (setting [3]), 0.11 nM.

Regarding `C=C[C@@H]1C[C@]1(NC(=O)[C@@H]1C[C@@H]2CN1C(=O)[C@H](C(C)(C)C)NC(=O)O[C@@H]1C[C@H]1CCCCCc1c(nc3cc(C(C)C)ccc3c1OCCCNC(C)C)O2)C(=O)NS(=O)(=O)C1(C)CC1` [Example 160, (1aR,5S,8S,10R,22aR)-5-tert-butyl-N-[(1R,2S)-2-ethenyl-1-{[(1-methylcyclopropyl)sulfonyl]carbamoyl}cyclopropyl]-3,6-dioxo-14-(propan-2-yl)-17-[3-(propan-2-ylamino)propoxy]-1,1a,3,4,5,6,9, 10,18,19,20,21,22,22a-tetradeca hydro-8H-7,10-methanocyclopropa[18,19] [1,10,3,6]dioxadiazacyclononadecino [11,12-b]quinoline-8-carboxamide], the figures for the Ki in assay [1] and in assay [2] (setting [3]) were 0.44 nM and 0.053 nM, respectively.

Regarding `CC1(S(=O)(=O)NC(=O)[C@@]23C[C@H]2/C=C\CCCCC[C@@H]2NC(=O)O[C@@H]4C[C@H]4CCC/C=C/c4c(nc5ccccc5c4OCCN4CCCCC4)O[C@@H]4C[C@@H](C(=O)N3)N(C4)C2=O)CC1` [Example 296, (1aR,5S,11Z,12aS,13aR,16S,19R,27E,31aR)—N-[(1-methylcyclopropyl)sulfonyl]-3,15,33-trioxo-26-[2-(piperidin-1-yl)ethoxy]-1,1a,3,4,5,6,7,8,9,10,12a,13,15,16,18,19,29,30,31,31a-icosahydro-5,17:16,19-dimethanodicyclopropa[12,13:28,29][1,20,3,14,17]dioxatriazacyclononacosino[21,22-b]quinoline-13a(14H)-carboxamide], the values for the inhibition constant (Ki) in assay [1] and in assay [2] (setting [3]) were 6 nM and 0.27 nM, respectively.

In the case of `C=C[C@@H]1C[C@]1(NC(=O)[C@@H]1C[C@@H]2CN1C(=O)[C@H](C(C)(C)C)NC(=O)O[C@@H]1C[C@H]1CCCCCc1c(nc3ccccc3c1OCC1CCN(CCOC)CC1)O2)C(=O)NS(=O)(=O)C1(C)CC1` [Example 228, (1aR,5S,8S,10R,22aR)-5-tert-butyl-N-[(1R,2S)-2-ethenyl-1-{[(1-methylcyclopropyl)sulfonyl]carbamoyl}cyclopropyl]-17-{[1-(2-methoxyethyl)piperidin-4-yl]methoxy}-3,6-dioxo-1,1a,3,4,5,6,9,10,18,19,20,21,22,22a-tetradecahydro-8H-7,10-methanocyclopropa[18,19][1,10,3,6] dioxadiazacyclononadecino[11,12-b]quinoline-8-carboxamide], the results for the Ki in assay [1] and in assay [2] (setting [3]) were 0.47 nM and 0.11 nM, respectively.

Take `C=C[C@@H]1C[C@]1(NC(=O)[C@@H]1C[C@@H]2CN1C(=O)[C@H](C1CCCC1)NC(=O)O[C@@H]1CCC[C@H]1CC/C=C/Cc1c(nc3ccccc3c1OCCN(C)C)O2)C(=O)NS(=O)(=O)C1CC1` [Example 82, (3aR,7S,10S,12R,21E,24aS)-7-cyclo pentyl-N-{(1R,2S)-1-[(cyclopropylsulfonyl)carbamoyl]-2-ethenylcyclopropyl}-19-[2-(dimethylamino)ethoxy]-5,8-dioxo-1,2,3,3a,5,6,7,8,11,12,20,23, 24,24a-tetradecahydro-10H-9,12-methanocyclopenta[18,19] [1,10,3,6]dioxadiazacyclononadecino [11,12-b]quinoline-10-carboxamide]: the Ki was 2.5 nM in assay [1] and 0.18 nM in assay [2] (setting [3]).

Consider `C=C[C@@H]1C[C@]1(NC(=O)[C@@H]1C[C@@H]2CN1C(=O)[C@H](C1CCCCC1)NC(=O)O[C@@H]1C[C@H]1CCCCCc1c(nc3ccccc3c1OCCCN1CCC(S(C)(=O)=O)C1)O2)C(=O)NS(=O)(=O)C1(C)CC1` (stereo partly drawn) [Example 166, (1aR,5S,8S,10R,22aR)-5-cyclohexyl-N-[(1R,2S)-2-ethenyl-1-{[(1-methylcyclopropyl)sulfonyl]carbamoyl}cyclopropyl]-17-{3-[3-(methylsuflonyl)pyrrolidin-1-yl]propoxy}-3,6-dioxo-1,1a,3,4,5,9,10, 18,19,20,21,22,22a-tetradecahydro-8H-7,10-methanocyclopropa[18,19][1,10,3,6] dioxadiazacyclononadecino[11,12-b] quinoline-8-carboxamide], for which the Ki in assay [1] came to 2.2 nM; in assay [2] (setting [3]), 0.11 nM.

As for `C=CC1C[C@]1(NC(=O)[C@@H]1C[C@@H]2CN1C(=O)[C@H](C(C)(C)C)NC(=O)O[C@@H]1CCC[C@H]1CCCCCc1c(nc3ccccc3c1OCCN1CCOCC1)O2)C(=O)NS(=O)(=O)C1(C(=C)C)CC1` (stereo partly drawn) [Example 62], the Ki in assay [1] was determined as 85 nM; in assay [2] (setting [3]), 1.6 nM.
